# Inconclusive results are not listed. Active and inactive are the calls of the source.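 How the source made its calls: active means fitted activation curve crossing 40% at a concentration no higher than the sample's top valid tested dose; inconclusive means flat fitted curve at 30% to 70% activation, or poor curve fit; inactive means signal decrease, flat curve within 30%, or the rest.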
# Tested on: NIH3T3-HGL HSF-1 response element luciferase, 48 h
# Assay: HSF-1 reporter activators over prolonged exposure, confirmation, cell-based, mouse, luciferase, cherry-pick, dose (AID 602296);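 further: test compounds applied by themselves with no MG132 co-treatment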
row,SMILES,AC40
1,Cc1cccc(NC(=O)CSc2nnc(-c3ccco3)c(-c3ccco3)n2)c1C,> 26 µM (inactive)
2,O[C@@H]1C2CCCC1[C@]1(O)CCCCC1C2 (some centres undefined),> 26 µM (inactive)
3,CCOC(=O)Nc1ccc(C(=O)Oc2ccccc2)c(O)c1,14.2 µM
4,ON=C1c2ccccc2-c2ccccc21,15.8 µM
5,O=C1c2ccccc2C(=O)N1CC(O)COc1ccc(Br)cc1 (centres undefined),13.7 µM
6,COc1ccc(NC(=O)NNC(=O)c2cc3occc3n2C)c(OC)c1,> 26 µM (inactive)
7,Cc1ccc(/C=C2/NC(=O)N(Cc3ccc(Br)cc3)C2=O)o1,> 26 µM (inactive)
8,Cc1noc(NS(=O)(=O)c2ccc(NC(=O)c3oc4ccc(F)cc4c3C)cc2)c1C,> 26 µM (inactive)
9,CCCc1cc(=O)[nH]c(SCC(=O)Nc2ccc(C)cc2)n1,> 26 µM (inactive)
10,CN(Cc1ccccc1)C(=O)CCC1CCN(C(=O)CC2=CCCCC2)CC1,> 26 µM (inactive)
11,COC(=O)c1nnn(CC(=O)NC(=O)Nc2ccc(F)cc2)c1C(=O)OC,> 26 µM (inactive)
12,Fc1ccccc1-c1nc2nc3ccccc3nc2n1CC1CCCO1 (centres undefined),21.8 µM
13,CN(C)CCCn1c(N)c(C#N)c2nc(C#N)c(C#N)nc21,> 12 µM (inactive)
14,Nn1cnnc1N/N=C/c1cc([N+](=O)[O-])c(Cl)cc1Cl,> 26 µM (inactive)
15,Cc1nc2ccc(Br)cc2c(=O)n1Cc1cccs1,> 26 µM (inactive)
16,N#CC(C#N)=C1C=CC=CN1/C(=C\c1ccccc1)C(=O)c1cccs1,12.3 µM
17,NC(=O)c1cc2cc(Br)ccc2oc1=NCc1ccccc1,> 26 µM (inactive)
18,CCOC(=O)c1sc2nc(C)nc(SCC(=O)NC3CCS(=O)(=O)C3)c2c1C (centres undefined),> 26 µM (inactive)
19,C=CC[n+]1c(-c2ccc(OC)cc2)csc1NNC(=O)Nc1ccccc1,> 12 µM (inactive)
20,CC1CCN(c2ccc(C=O)o2)CC1,> 26 µM (inactive)
21,CN1CCN(NC(=O)/C=C/c2ccc(Br)cc2)CC1,> 26 µM (inactive)
22,Fc1cc(NCc2ccccc2)nc(NCc2ccccc2)n1,9.52 µM
23,COc1cccc(NC(=S)NC(=O)c2c(Cl)c(C)nn2C)c1,2.51 µM
24,Cc1cccc(N2CCN(c3cccc(C)c3)C2c2cccnc2)c1,> 12 µM (inactive)
25,Clc1ccc(SCc2csc(N3CCOCC3)n2)cc1,> 26 µM (inactive)
26,O=C(CC1(O)C(=O)Nc2ccc(Br)cc21)c1ccc2c(c1)OCO2 (centres undefined),> 26 µM (inactive)
27,O=C(CCCC1=NS(=O)(=O)c2ccccc2N1)N1CCN(c2ccccc2)CC1,> 26 µM (inactive)

row,SMILES,AC40
1,Cc1ccc(NC(=O)N2CCCC2C(=O)Nc2c(C)cc(C)cc2C)cc1 (centres undefined),> 26 µM (inactive)
2,Cn1cc(C=O)c(-c2ccc3c(c2)OCCCO3)n1,3.77 µM
3,Cc1cc(C)c2cc(C(=O)N(C)C3CCN(C)CC3)[nH]c2c1,> 26 µM (inactive)
4,CC(=O)Nc1cccc(-n2nnc(SCC(=O)Nc3ccc(F)c(Cl)c3)n2)c1,> 26 µM (inactive)
5,CSc1ccc(/C=N\Nc2nncn2N)cc1,> 26 µM (inactive)
6,ClC(Cl)c1nnc(-c2ccccc2)c(-c2c[nH]c3ccccc23)n1,> 26 µM (inactive)
7,Cn1c(CCCOc2ccc(Cl)cc2Cl)nnc1SCC(=O)Nc1cccc(F)c1,20.2 µM
8,Nc1nnc(CSCc2ccccc2Cl)s1,> 26 µM (inactive)
9,Cc1ccc(C(=O)CNc2ccc(Cl)cc2)cc1,> 26 µM (inactive)
10,Nc1nnc(SCC(=O)Nc2cccc3ccccc23)s1,> 26 µM (inactive)
11,NC(N)=NS(=O)(=O)c1ccc(NC(=S)NC(=O)c2ccc(Br)cc2)cc1,17.5 µM
12,CC(=O)N1N=C(c2ccccc2)CC1c1ccccc1[N+](=O)[O-] (centres undefined),16 µM
13,CC(=O)Nc1ccc(N/C=C/C(=O)C(C)(C)C)cc1,> 26 µM (inactive)
14,CSc1ccccc1-n1nnnc1SCC(=O)NCc1cccs1,> 26 µM (inactive)
15,CCOC(=O)C(CCOc1cccc(CC)c1)C(=O)OCC,> 26 µM (inactive)
16,Cc1cccc(N2C(=O)C(O)=C(C(=O)c3cccs3)C2c2ccc(C(C)C)cc2)n1 (centres undefined),9.04 µM
17,CCOc1ccccc1CNCCN1CCOCC1,> 26 µM (inactive)
18,C=CCC(NCc1ccco1)c1ccc(OC)c(OC)c1 (centres undefined),> 26 µM (inactive)
19,CC(C)=NN1C(=O)c2ccccc2NC1(C)C,> 26 µM (inactive)
20,Cc1ccc(-c2c3c(=O)n(C)c(=O)n(C)c3cn2-n2cnnc2)cc1,15.1 µM
21,NC1=NC(=O)/C(=C/c2cn(Cc3ccccc3)c3ccccc23)S1,9.09 µM
22,N=c1sccn1CC(=O)Nc1cc(Cl)ccc1Oc1ccccc1,> 26 µM (inactive)
23,CC[C@@]1(O)C(=O)OCc2c1cc1n(c2=O)Cc2cc3c(N)cccc3nc2-1,15.9 µM
24,O=C(COC(=O)C1CSC2(c3ccc(F)cc3)CCC(=O)N12)NC(=O)NC1CCCC1 (centres undefined),> 26 µM (inactive)
25,O=C1c2cccc3c([N+](=O)[O-])ccc(c23)C(=O)N1O,> 26 µM (inactive)
26,Cn1c(=O)oc2cc(S(=O)(=O)N3CCCCC3)ccc21,> 26 µM (inactive)
27,CCN(CC)C(=O)CSc1ncnc2sc(C)c(C)c12,> 26 µM (inactive)
